Source: article PMC12478189, “Structurally diverse viral inhibitors converge on a shared mechanism to stall the antigen transporter TAP” (Proceedings of the National Academy of Sciences of the …, 2025)

Target: T1, TAP/hUS6 complex (Homo sapiens, UniProt Q03518+Q03519)
T1 construct: gene TAP1; TAP1 C-terminal SpyCatcher, TAP2, hUS6 with SpyTag at its cytoplasmic terminus (covalent tether), GFP tag cleaved; HEK293S GnTI-; in GDN; hUS6 residues 102-136 resolved; with Unique short US6 glycoprotein
Assay: cryo-EM structure of the complex
Type: binding
Conditions: pH 6.5

T1 sequence (P14334 20-183): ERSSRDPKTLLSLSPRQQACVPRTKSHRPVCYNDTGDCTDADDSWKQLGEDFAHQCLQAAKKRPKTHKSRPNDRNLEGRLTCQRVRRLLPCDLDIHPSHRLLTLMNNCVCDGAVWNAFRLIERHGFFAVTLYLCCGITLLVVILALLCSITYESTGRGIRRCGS
T1 sequence (Q03518 whole entry, the tested form may be a part): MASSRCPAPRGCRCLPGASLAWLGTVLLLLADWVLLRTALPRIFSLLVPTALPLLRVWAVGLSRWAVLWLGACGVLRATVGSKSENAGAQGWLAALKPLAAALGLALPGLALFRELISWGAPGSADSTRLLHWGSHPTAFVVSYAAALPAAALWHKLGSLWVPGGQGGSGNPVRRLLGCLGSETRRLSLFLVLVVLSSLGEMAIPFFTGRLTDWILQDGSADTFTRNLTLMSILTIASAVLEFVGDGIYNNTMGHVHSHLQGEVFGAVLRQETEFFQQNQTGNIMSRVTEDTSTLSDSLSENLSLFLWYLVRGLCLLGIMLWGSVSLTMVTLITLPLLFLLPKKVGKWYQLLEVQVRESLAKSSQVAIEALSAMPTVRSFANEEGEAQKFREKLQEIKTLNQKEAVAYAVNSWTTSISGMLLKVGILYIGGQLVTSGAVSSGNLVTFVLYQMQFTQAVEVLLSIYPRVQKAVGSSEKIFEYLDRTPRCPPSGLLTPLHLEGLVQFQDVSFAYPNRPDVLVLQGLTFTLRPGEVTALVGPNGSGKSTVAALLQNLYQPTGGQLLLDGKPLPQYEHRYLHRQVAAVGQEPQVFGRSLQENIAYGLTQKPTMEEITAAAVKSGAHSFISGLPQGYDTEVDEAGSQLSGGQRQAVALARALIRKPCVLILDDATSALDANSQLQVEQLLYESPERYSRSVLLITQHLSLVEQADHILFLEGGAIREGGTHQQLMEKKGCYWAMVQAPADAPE
T1 sequence (Q03519 whole entry, the tested form may be a part): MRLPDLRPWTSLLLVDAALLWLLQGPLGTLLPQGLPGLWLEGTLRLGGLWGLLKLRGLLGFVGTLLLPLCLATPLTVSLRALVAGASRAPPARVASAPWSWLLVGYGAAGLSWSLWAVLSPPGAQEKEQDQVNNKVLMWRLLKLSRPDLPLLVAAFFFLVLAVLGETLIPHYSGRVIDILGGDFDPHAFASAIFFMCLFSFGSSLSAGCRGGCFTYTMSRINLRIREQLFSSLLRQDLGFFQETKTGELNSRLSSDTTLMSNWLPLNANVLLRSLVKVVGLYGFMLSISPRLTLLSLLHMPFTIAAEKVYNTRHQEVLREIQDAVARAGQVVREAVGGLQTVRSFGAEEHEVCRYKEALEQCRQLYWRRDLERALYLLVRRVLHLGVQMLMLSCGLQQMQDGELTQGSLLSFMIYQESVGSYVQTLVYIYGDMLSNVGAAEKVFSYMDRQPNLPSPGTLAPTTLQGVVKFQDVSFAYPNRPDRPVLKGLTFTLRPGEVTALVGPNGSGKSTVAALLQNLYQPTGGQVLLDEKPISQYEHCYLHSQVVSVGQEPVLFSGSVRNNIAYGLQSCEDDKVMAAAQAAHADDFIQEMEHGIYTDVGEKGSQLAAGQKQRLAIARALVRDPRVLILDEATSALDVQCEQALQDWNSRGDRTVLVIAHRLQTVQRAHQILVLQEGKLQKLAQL

| Compound | cryo-EM structure of the complex (10 mM ATP added, ADP at the consensus NBD site, posthydrolytic state) | cryo-EM structure of the complex (10 mM ATP, ATP at the degenerate NBD site, outward-facing, NBD-dimerized) |
| --- | --- | --- |
| Nc1ncnc2c1ncn2[C@@H]1O[C@H](COP(=O)(O)OP(=O)(O)O)[C@@H](O)[C@H]1O [ADP] | densities corresponding to ATP bound at the degenerate site and ADP at the consensus site | – |
| Nc1ncnc2c1ncn2[C@@H]1O[C@H](COP(=O)(O)OP(=O)(O)OP(=O)(O)O)[C@@H](O)[C@H]1O [ATP] | – | densities corresponding to ATP bound at the degenerate site and ADP at the consensus site |
